Data as given in patent publication US9676771B2, “Compounds for inhibiting drug-resistant strains of HIV-1 integrase” (priority 2013, dated 2017).
Like-named read-outs stand apart in the source and are kept apart here.

Tests used:
[1] = tested on: HIV-1 constructs containing mutant IN G118R; assay: microbe, parasite or virus in culture; type: cell-based; details: Human immunodeficiency virus 1
Procedure: (§1) Single-Round HIV-1 Infectivity Assay.
(§2) Human embryonyl kidney cell culture cell line 293 was acquired from the American type Culture Collection (ATCC).
(§3) […]. […] The virus-containing supernatants were then harvested, clarified by low-speed centrifugation, filtrated, and diluted for preparation in infection assays. […] After compound incorporation and activation in the cell, 100 μL of virus-stock diluted to achieve a maximum luciferase signal between 0.2 and 1.5 RLUs was added to each well and further incubated at 37° C. for 48 hrs. […] Activity was normalized to infectivity in the absence of target compounds. KaleidaGraph (Synergy Software, Reading, Pa.) was used to perform regression analysis on the data. EC50 values were determined from the fit model.
(§4) pNLNgoMIVR^−ΔEnv.LUC has been described previously (Zhao et al. 2008). The integrase codon reading frame was removed from pNLNgoMIVR^−ΔEnv LUC (between KpnI and SalI sites) and placed between the KpnI and SalI sites of pBluescript II KS+. Using that construct as the wild-type template, we prepared the following HIV-1 Integrase-resistant mutants via the QuikChange II XL (Stratagene, La Jolla, Calif.) site-directed mutagenesis protocol: H51Y, T66I, E92Q, G118R, Y143R, Q148H, Q148K, N155H, R263K, G140S+Q148H, G140A+Q148K, E138K+Q148K, and H51Y+R263K. The following sense with cognate antisense (not shown) oligonucleotides (Integrated DNA Technologies, Coralville, Iowa) were used in the mutagenesis: H51Y, 5′-[…]-3; T66I, 5′-[…]-3′; E92Q, 5′-[…]-3′; G118R, 5′-[…]-3′; E138K, 5′-[…]-3; G140A, 5′-[…]-3; G140S, 5′-[…]-3′; Y143R, 5′-[…]-3′; Q148H, 5′-[…]-3′; Q148K, 5′-[…]-3; N155H, 5′-[…]-3′; R263K 5′-[…]-3′. The double mutation G140S+Q148H was constructed by using the previously generated Q148H mutant and the appropriate oligonucleotide for the 2nd mutation, G140S. The double mutation G140A+Q148K was made by using the Q148K mutant and the appropriate oligonucleotide for the 2nd mutation, G140A. The double mutation E138K+Q148K was made by using the Q148K mutant and the appropriate oligonucleotide for the 2nd mutation, E138K. The double mutation H51Y+R263K was constructed by using the previously generated H51Y mutant and the appropriate oligonucleotides for the 2nd mutation, R263K. The DNA sequence of each construct was verified independently by DNA sequence determination. The mutant integrase coding sequences from pBluescript II KS+ were then subcloned into pNLNgoMIVR^−ΔEnv LUC (between the KpnI and SalI sites) to produce the full-length mutant HIV-1 Integrase constructs. These DNA sequences were additionally checked independently by DNA sequence determination.

[2] = tested on: HIV-1 constructs containing mutant IN E92Q; assay: Single-round HIV-1 infectivity assay, IN mutant E92Q; type: cell-based; details: Human immunodeficiency virus 1; Table 8; read-out: EC50 (nM, IN mutants) E92Q
Procedure: as §1, §2, §3, §4

[3] = tested on: HIV-1 constructs containing mutant IN Y143R; assay: microbe, parasite or virus in culture; type: cell-based; details: Human immunodeficiency virus 1
Method in brief: (§5)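 Single-round infectivity assay using luciferase-reporter pNLNgoMIVR−ΔEnv.LUC virus carrying site-directed integrase mutants, produced in 293 cells. Activity normalized to infectivity without compound; EC50 from regression fit.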

[4] = tested on: HIV-1 constructs containing mutant IN G140S-Q148H; assay: microbe, parasite or virus in culture; type: cell-based; details: Human immunodeficiency virus 1
Method in brief: as §5

[5] = tested on: HIV-1 constructs containing mutant IN N155H; assay: microbe, parasite or virus in culture; type: cell-based; details: Human immunodeficiency virus 1
Method in brief: as §5

[6] = tested on: HIV-1 constructs containing mutant IN H51Y; assay: Single-round HIV-1 infectivity assay, IN mutant H51Y; type: cell-based; details: Human immunodeficiency virus 1; Table 8; read-out: EC50 (nM, IN mutants) H51Y
Procedure: as §1, §2, §3, §4

[7] = tested on: HIV-1 constructs containing mutant IN T66I; assay: Single-round HIV-1 infectivity assay, IN mutant T66I; type: cell-based; details: Human immunodeficiency virus 1; Table 8; read-out: EC50 (nM, IN mutants) T66I
Procedure: as §1, §2, §3, §4

[8] = tested on: HIV-1 constructs containing mutant IN H51Y/R263K; assay: Single-round HIV-1 infectivity assay, IN double mutant H51Y/R263K; type: cell-based; details: Human immunodeficiency virus 1; Table 8; read-out: EC50 (nM, IN mutants) H51Y/R263K
Procedure: as §1, §2, §3, §4

[9] = tested on: HIV-1 constructs containing mutant IN R263K; assay: Single-round HIV-1 infectivity assay, IN mutant R263K; type: cell-based; details: Human immunodeficiency virus 1
Procedure: as §1, §2, §3, §4

[10] = tested on: HIV-1 constructs containing wild-type IN; assay: microbe, parasite or virus in culture; type: cell-based
[11] = in vitro; type: cell-based, human; details: human, 50% reduction in the level of ATP in HOS cells
Method in brief: (§6)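 Cells exposed to compounds over a concentration range for 48 hrs at 37° C. Viability read as cellular ATP by luciferase (ATPlite) luminescence after lysis, normalised to untreated cells; CC50 derived by regression fit.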

[12] = biological target: HIV-1 integrase (Human immunodeficiency virus type 1 group M subtype B, UniProt P12497); assay: biochemical; type: biochemical
Method in brief: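 Compounds or DMSO added to 20 nM DNA and 400 nM integrase in 50 mM MOPS pH 7.2, 7.5 mM MgCl2, 14 mM 2-mercaptoethanol; 2 h at 37° C, quenched with formamide/SDS loading buffer. Products resolved on gels, imaged and quantified by densitometry.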

[13] = tested on: human osteosarcoma (HOS) cells; assay: in vitro; type: cell-based; details: Table 3; 50% reduction in the level of ATP in HOS cells
Method in brief: as §6

[14] = tested on: HIV-1 WT IN; assay: High growth serum assays in cells (WT); type: cell-based
[15] = Table 8, read-out: EC50 (nM, IN mutants) G118R
[16] = Table 8, read-out: EC50 (nM, IN mutants) Y143R
[17] = Table 8, read-out: EC50 (nM, IN mutants) G140S/Q148H
[18] = Table 8, read-out: EC50 (nM, IN mutants) N155H
[19] = Table 8, read-out: EC50 (nM, IN mutants) R263K
[20] = Human immunodeficiency virus 1, Table 8, WT IN, read-out: EC50 (nM, WT)
[21] = Table 4, strand transfer, read-out: IC50 (Strand Transfer)
[22] = Human immunodeficiency virus 1, Table 3, WT IN, read-out: EC50 (nM, WT)

Row | SMILES | EC50 [1, 15] | EC50 [2] | EC50 [3, 16] | EC50 [4, 17] | EC50 [5, 18] | EC50 [6] | EC50 [7] | EC50 [8] | EC50 [9, 19] | EC50 [10, 20] | CC50 ([11]; Table 8) | CC50 ([11]; Table 6) | IC50 [12, 21] | EC50 [10, 22] | further results
1 | COc1cc2c(cc1Cc1cccc(Cl)c1F)c(=O)c(C(=O)O)cn2[C@H](CO)C(C)C [EVG, elvitegravir, reference compound] | 21 nM | 154 nM | 7.9 nM | 5700 nM | 90 nM | 4.5 nM | 66.2 nM | 52.6 nM | 10 nM | 6.4 ± 0.8 nM | > 250000 nM | – | – | – | –
2 | Cc1nnc(C(=O)NC(C)(C)c2nc(C(=O)NCc3ccc(F)cc3)c(O)c(=O)n2C)o1 [RAL, raltegravir, reference compound] | 35.5 nM | 29.8 nM | – | – | – | 3.4 nM | 2.8 nM | 6 ± 2.3 nM | 5.7 nM | – | > 250000 nM | > 100000 nM | – | – | EC50 ([10]; Human immunodeficiency virus 1, Table 6, WT IN, read-out: EC50 (nM, WT)): 4 ± 2 nM; CC50 ([11]; Table 2): > 100000 nM
3 | CC(=O)OCCCCCc1cnc2c(c1)c(NCCO)c(C(=O)NCc1ccc(F)cc1F)c(=O)n2O [XZ439, 5-(6-((2,4-Difluorobenzyl)carbamoyl)-8-hydroxy-5-((2-hydroxyethyl)amino)-7-oxo-7,8-dihydro-1,8-naphthyridin-3-yl)pentyl acetate] | 14.5 nM | 3.8 nM | 4.1 ± 1 nM | 5.3 nM | 10.3 nM | 7.4 nM | 1.2 nM | 15.2 nM | 3.6 nM | 5.3 nM | > 250000 nM | – | – | – | –
4 | O=C(NCc1ccc(F)cc1F)c1c(NCCCCc2ccccc2)c2cccnc2n(O)c1=O [XZ383, N-(2,4-difluorobenzyl)-1-hydroxy-2-oxo-4-((4-phenylbutyl)amino)-1,2-dihydro-1,8-naphthyridine-3-carboxamide] | – | – | – | – | – | – | – | – | – | – | – | – | 0.28 ± 0.11 µM | 49.9 ± 13 nM | IC50 ([12]; Table 4, 3′-processing, read-out: IC50 (3^+-Processing)): 12.2 ± 2 µM; EC50 ([3]; Table 3, read-out: EC50 (nM, IN Mutants) Y143R): 39.9 ± 14.7 nM; EC50 ([4]; Table 3, G140S-Q148H double mutant, read-out: EC50 (nM, IN Mutants) SH): 243 ± 38.7 nM; EC50 ([5]; Table 3, read-out: EC50 (nM, IN Mutants) N155H): 116 ± 21.9 nM; Si (selectivity index) ([10]; Table 3, ratio of CC50 to EC50): 2,040; CC50 [13]: 102000 ± 8000 nM
5 | Nc1c(C(=O)NCc2ccc(F)cc2F)c(=O)n(O)c2ncccc12 [XZ384, 4-Amino-N-(2,4-difluorobenzyl)-1-hydroxy-2-oxo-1,2-dihydro-1,8-naphthyridine-3-carboxamide] | 16.1 nM | 3 nM | – | – | – | 1 nM | 0.6 nM | 3.2 nM | 6.4 nM | – | > 250000 nM | > 250000 nM | 0.019 ± 0.002 µM | 1.1 ± 0.66 nM | IC50 ([12]; Table 7, 3′-processing, read-out: IC50 (μM) 3′-P): 2.5 ± 0.3 µM; EC50 ([1]; Table 6, read-out: EC50 (nM, IN Mutants) G118R): 16.1 ± 4.6 nM; EC50 ([9]; Table 6, read-out: EC50 (nM, IN Mutants) R263K): 6.4 ± 2.3 nM; EC50 ([10]; Human immunodeficiency virus 1, read-out: EC50 (nM), Table 9, WT, normal 5% serum): 1.1 ± 0.66 nM; CC50 ([11]; Table 3): > 250000 nM; EC50 ([14]; Human immunodeficiency virus 1, read-out: EC50 (nM), Table 9, 10% FBS): 0.8 ± 0.3 nM; EC50 ([14]; Human immunodeficiency virus 1, read-out: EC50 (nM), Table 9, 15% FBS): 0.5 ± 0.05 nM
